Data set [1] addresses Protein cereblon (Homo sapiens, UniProt Q96SW2). Kind of data set: Binding affinity to GST-tagged wild type human CRBN assessed as inhibition constant by TR-FRET assay.
The subject of data set [2] is SKNO-1. Kind of data set: Effect on STAT3 level in human SKNO-1 cells upto 5 uM measured for 18 hrs by Western blot analysis. The format is functional, cell-based. On the technique in general: Immunoblotting shows a protein as a band on a membrane.
The subject of data set [3] is SKNO-1. Description: Effect on STAT4 level in human SKNO-1 cells upto 5 uM measured for 18 hrs by Western blot analysis. The data set is classed as functional, cell-based.
Data set [4] can be described thus: Antiproliferative activity against human Kasumi-3 cells assessed as cell growth inhibition measured for 4 days by celltiter-glo assay. Conditions: Kasumi-3, 96 h. On the technique in general: ATP-based viability assays read luminescence as a measure of living cells.
Data set [5] concerns OCI-AML2. Kind of data set: Antiproliferative activity against human OCI-AML2 cells assessed as cell growth inhibition measured for 4 days by celltiter-glo assay. The note with it: OCI-AML2, 96 h.
A short description of data set [6]: Antiproliferative activity against human BDCM cells assessed as cell growth inhibition measured for 4 days by celltiter-glo assay. Conditions: 96 h.
In data set [7] the test system is MOLM-13. Kind of data set: Antiproliferative activity against human MOLM-13 cells assessed as cell growth inhibition measured for 4 days by celltiter-glo assay. Conditions: MOLM-13, 96 h.
Data set [8] concerns HL-60. Description: Antiproliferative activity against human HL-60 cells assessed as cell growth inhibition measured for 4 days by celltiter-glo assay. Conditions: HL-60, 96 h.
A short description of data set [9]: Antiproliferative activity against human SKNO-1 cells assessed as maximal cell growth inhibition measured for 4 days by celltiter-glo assay relative to control. The format is functional. The note with it: time 4 day.
The test system of data set [10] is OCI-AML2. Description: Antiproliferative activity against human OCI-AML2 cells assessed as maximal cell growth inhibition measured for 4 days by celltiter-glo assay relative to control. The data set is classed as functional. Conditions: time 4 day.
Data set [11] is described as follows: Half life in SCID mouse at 150 mg/kg, ip. The data set is classed as ADME, organism-based. Conditions: in vivo.
Data set [12] relates to Mus musculus. Kind of data set: In vivo induction of degradation of STAT5 in human MV4-11 cells xenografted in SCID mouse assessed as reduction in STAT5 phosphorylation at Y694 residue at 150 mg/kg, ip measured at 1 hrs by immunoblotting analysis. The format is functional, organism-based.
Data set [13] in a line: In vivo induction of degradation of STAT5 in human MV4-11 cells xenografted in SCID mouse assessed as reduction in STAT5 levels at 150 mg/kg, ip measured at 24 hrs by immunoblotting analysis. The format is functional. Set-up: scale not given: the % may be the effect or the level left. Background: Xenograft models place foreign cells or tissue in a host animal.
For data set [14], the system named is MV4-11. Kind of data set: Antitumor activity against human MV4-11 cells xenografted in SCID mouse assessed as tumor growth inhibition at 50 mg/kg, ip administered 5 days a week for 3 weeks. The data set is classed as functional. Conditions: MV4-11, 504 h, read-out: TGI.
The subject of data set [15] is MV4-11. Kind of data set: Antitumor activity against human MV4-11 cells xenografted in SCID mouse assessed as tumor growth inhibition at 200 mg/kg, ip administered 5 days a week for 3 weeks. The data set is classed as functional. Conditions: MV4-11, 504 h, read-out: TGI.
A short description of data set [16]: Toxicity in SCID mouse assessed as body weight loss at 50 to 200 mg/kg, ip administered 5 days a week for 3 weeks. The note with it: in vivo, 504 h, dose 50-200 mg/kg. The data set is classed as organism-based.
The target in data set [17] is T1, STAT5A/STAT5B (Homo sapiens, UniProt P42229+P51692).
T1 sequence (P42229 whole entry): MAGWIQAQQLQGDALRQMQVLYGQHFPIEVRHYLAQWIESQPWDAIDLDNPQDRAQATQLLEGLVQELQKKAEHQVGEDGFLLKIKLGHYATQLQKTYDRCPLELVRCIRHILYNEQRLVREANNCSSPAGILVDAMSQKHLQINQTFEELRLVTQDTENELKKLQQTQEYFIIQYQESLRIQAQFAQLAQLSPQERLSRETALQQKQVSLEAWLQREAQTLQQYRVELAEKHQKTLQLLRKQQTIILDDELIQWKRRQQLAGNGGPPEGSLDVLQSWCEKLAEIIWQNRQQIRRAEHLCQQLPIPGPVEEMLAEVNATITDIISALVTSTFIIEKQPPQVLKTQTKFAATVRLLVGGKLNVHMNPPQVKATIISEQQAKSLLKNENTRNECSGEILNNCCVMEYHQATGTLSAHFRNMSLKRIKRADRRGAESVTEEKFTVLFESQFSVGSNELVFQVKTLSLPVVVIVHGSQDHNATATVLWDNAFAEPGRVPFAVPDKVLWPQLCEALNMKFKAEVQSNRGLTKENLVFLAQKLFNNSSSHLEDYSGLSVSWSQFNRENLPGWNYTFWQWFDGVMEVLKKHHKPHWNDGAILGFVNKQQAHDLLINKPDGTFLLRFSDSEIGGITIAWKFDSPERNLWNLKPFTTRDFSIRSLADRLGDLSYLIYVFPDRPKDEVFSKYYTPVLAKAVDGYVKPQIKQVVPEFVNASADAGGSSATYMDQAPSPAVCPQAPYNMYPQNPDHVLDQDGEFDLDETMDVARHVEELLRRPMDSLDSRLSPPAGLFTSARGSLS
T1 sequence (P51692 whole entry): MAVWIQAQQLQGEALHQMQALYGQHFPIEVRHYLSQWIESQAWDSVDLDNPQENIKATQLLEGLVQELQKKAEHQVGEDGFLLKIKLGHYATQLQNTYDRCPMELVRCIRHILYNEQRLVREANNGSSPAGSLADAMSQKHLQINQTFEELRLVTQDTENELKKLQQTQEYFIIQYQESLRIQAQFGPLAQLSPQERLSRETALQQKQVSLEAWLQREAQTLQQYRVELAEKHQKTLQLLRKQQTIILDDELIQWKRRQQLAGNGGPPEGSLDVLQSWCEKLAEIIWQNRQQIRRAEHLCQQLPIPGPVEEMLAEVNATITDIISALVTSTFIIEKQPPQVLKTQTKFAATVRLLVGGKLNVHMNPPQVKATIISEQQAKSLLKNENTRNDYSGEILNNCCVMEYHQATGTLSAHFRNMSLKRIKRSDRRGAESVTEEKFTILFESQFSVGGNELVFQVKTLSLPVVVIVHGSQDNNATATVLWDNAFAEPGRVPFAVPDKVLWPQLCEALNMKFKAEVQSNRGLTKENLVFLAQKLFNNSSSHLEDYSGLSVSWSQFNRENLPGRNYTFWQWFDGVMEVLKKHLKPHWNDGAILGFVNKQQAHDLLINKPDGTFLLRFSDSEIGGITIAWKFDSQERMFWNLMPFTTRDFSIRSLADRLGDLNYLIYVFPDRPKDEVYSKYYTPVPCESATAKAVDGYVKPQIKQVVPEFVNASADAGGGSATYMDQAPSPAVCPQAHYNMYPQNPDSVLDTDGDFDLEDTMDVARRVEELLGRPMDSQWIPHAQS
Description: Induction of STAT5A/5B degradation in human SKNO-1 cells measured for 18 hrs by immunoblotting analysis. The data set is classed as cell-based.

In data set [18] the target is T1, STAT5A/STAT5B. Kind of data set: Induction of STAT5A/5B degradation in human RS4-11 cells measured for 18 hrs by immunoblotting analysis. The format is cell-based.
Data set [19] deals with T1, STAT5A/STAT5B. Kind of data set: Induction of STAT5A/5B degradation in human BDCM cells measured for 18 hrs by immunoblotting analysis. The format is cell-based.
For data set [20], the target named is T2, Signal transducer and activator of transcription 5A (Homo sapiens, UniProt P42229).
T2 sequence (P42229 whole entry): T1 sequence (P42229 whole entry)
Description: Induction of STAT5 degradation in human MV4-11 cells assessed as reduction in phosphorylated STAT5 level measured for 6 hrs by immunoblotting analysis. The data set is classed as cell-based.

In general, pKi refers to −log10 of the Ki, conventionally taken in molar units. A word on the pIC50: it is −log10 of the IC50, conventionally taken in molar units. The term half-life denotes the time needed for the level to fall by half in the phase considered. The term DC50 denotes the concentration giving 50% degradation.

pIC50, pKi: −log10 of the molar value. Active and inactive are the calls of the source. A value given as a limit tells only on which side of the number the result lay.

Protein cereblon, sequence (Q96SW2 whole entry): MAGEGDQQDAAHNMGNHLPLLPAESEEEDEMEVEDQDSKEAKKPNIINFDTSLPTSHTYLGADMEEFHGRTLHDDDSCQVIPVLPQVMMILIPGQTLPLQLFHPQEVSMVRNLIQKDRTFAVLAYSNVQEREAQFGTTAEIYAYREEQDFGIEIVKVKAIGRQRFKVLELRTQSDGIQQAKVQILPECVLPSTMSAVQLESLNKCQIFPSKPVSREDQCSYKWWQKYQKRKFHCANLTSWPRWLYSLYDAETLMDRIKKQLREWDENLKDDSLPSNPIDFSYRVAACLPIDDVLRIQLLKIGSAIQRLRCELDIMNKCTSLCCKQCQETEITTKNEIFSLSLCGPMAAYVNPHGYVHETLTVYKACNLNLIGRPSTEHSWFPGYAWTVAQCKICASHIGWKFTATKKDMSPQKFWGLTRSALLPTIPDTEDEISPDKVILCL

For the compound `CN(CCCC#Cc1cccc2c1CN(C1CCC(=O)NC1=O)C2=O)C(=O)CCN(C(=O)[C@@H]1CCCN1C(=O)[C@@H](NC(=O)c1cc2cc(C(F)(F)P(=O)(O)O)ccc2s1)C(C)(C)C)c1ccc(-c2nccs2)cc1` (stereo not given in full), the pKi in data set [1] was 6.77. Further, the outcome in data set [2] and in data set [3] was inactive. The pIC50 in [4] was 6.46; in data set [5] it was below 4.82; in data set [6] it was below 4.82; in [7], below 4.82; in [8] it was below 4.82. The Imax is 64% in [9] and below 5% in data set [10]. Also, the half-life in data set [11] is 1.9 h. The outcome in data set [12] was Active. For the same compound, the Activity in data set [13] is listed as above 70%; in data set [16] it was “Non-Toxic”. Also, the inhibition in vivo at 50 mg/kg in [14] worked out at 50%. For the same compound, in [15], the inhibition in vivo at 200 mg/kg stood at 80%. The DC50 in [17] stood at 80 nM; in data set [18], 70 nM; in [19] it was 410 nM; in [20] it was 60 nM.

(Values after ChEMBL document CHEMBL5380794, “Discovery of a Potent and Selective STAT5 PROTAC Degrader with Strong Antitumor Activity In Vivo in Acute Myeloid Leukemia” (J Med Chem, 2023).)
